Reference: ChEMBL document CHEMBL1130698, “Design and synthesis of new potent, silent 5-HT1A antagonists by covalent coupling of aminopropanol derivatives with selective serotonin reuptake inhibitors” (Bioorg Med Chem Lett, 1998)
pKi: −log10 of the molar value.

Biological target: T1, 5-hydroxytryptamine receptor 1A (Homo sapiens) (UniProt P08908)
T1 sequence (whole entry): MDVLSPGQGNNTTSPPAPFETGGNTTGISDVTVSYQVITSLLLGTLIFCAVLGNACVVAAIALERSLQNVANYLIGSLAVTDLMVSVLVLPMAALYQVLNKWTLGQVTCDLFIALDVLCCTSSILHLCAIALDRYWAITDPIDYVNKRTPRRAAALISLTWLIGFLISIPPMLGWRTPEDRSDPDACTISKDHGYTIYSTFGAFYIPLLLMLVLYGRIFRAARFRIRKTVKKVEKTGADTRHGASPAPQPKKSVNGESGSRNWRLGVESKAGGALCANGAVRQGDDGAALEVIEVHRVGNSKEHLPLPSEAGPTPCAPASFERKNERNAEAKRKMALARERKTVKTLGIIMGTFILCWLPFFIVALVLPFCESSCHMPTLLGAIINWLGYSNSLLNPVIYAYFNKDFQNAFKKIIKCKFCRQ
Assay: Antagonistic potency as binding affinity of 5-HT stimulated [35S]GTP gamma S to human 5-HT1A receptor
Type: functional

| SMILES | Kb [nM] |
| --- | --- |
| OC(CNCCC(Oc1ccc(C(F)(F)F)cc1)c1ccccc1)COc1cccc2[nH]ccc12 (centres undefined) | 2.2 |
| CCN(CC)C(=O)[C@@]1(c2ccccc2)C[C@H]1CNCC(O)COc1cccc2[nH]ccc12 (some centres undefined) | 14.8 |
| OC(CNCCCCCCN1CC[C@H](c2ccc(F)cc2)[C@@H](COc2ccc3c(c2)OCO3)C1)COc1cccc2[nH]ccc12 (some centres undefined) | 4.3 |
| OC(CNCCC(Oc1ccc(C(F)(F)F)cc1)c1ccccc1)COc1ccccc1C1CCCC1 (centres undefined) | 15.2 |
| OC(CNCCCCCCNCCC(Oc1ccc(C(F)(F)F)cc1)c1ccccc1)COc1cccc2ccccc12 (centres undefined) | 1730 |
| O[C@H](CNCC[C@H](Oc1ccc(C(F)(F)F)cc1)c1ccccc1)COc1cccc2ccccc12 | 388 |
| O[C@H](CNCC[C@H](Oc1ccc(C(F)(F)F)cc1)c1ccccc1)COc1cccc2[nH]ccc12 | 1.4 |
| O[C@H](COc1cccc2[nH]ccc12)CN1CC[C@@H](c2ccc(F)cc2)[C@H](COc2ccc3c(c2)OCO3)C1 | 0.7 |
| OC(CNCCCCCCN1CC[C@H](c2ccc(F)cc2)[C@@H](COc2ccc3c(c2)OCO3)C1)COc1cccc2ccccc12 (some centres undefined) | 188 |
| O[C@@H](CNCC[C@H](Oc1ccc(C(F)(F)F)cc1)c1ccccc1)COc1cccc2ccccc12 | 37.9 |
| O[C@@H](COc1cccc2[nH]ccc12)CN1CC[C@@H](c2ccc(F)cc2)[C@H](COc2ccc3c(c2)OCO3)C1 | 7.5 |
| O[C@@H](CNCC[C@H](Oc1ccc(C(F)(F)F)cc1)c1ccccc1)COc1cccc2[nH]ccc12 | 0.2 |

Biological target: T2, 5-hydroxytryptamine receptor 1A (Homo sapiens, UniProt P08908)
T2 sequence (P08908 whole entry): T1 sequence (whole entry)
Assay: Displacement of [3H]8-OH-DPAT from human 5-HT1A receptor

| SMILES | pKi |
| --- | --- |
| OC(CNCCC(Oc1ccc(C(F)(F)F)cc1)c1ccccc1)COc1cccc2[nH]ccc12 (centres undefined) | 7.73 |
| CCN(CC)C(=O)[C@@]1(c2ccccc2)C[C@H]1CNCC(O)COc1cccc2[nH]ccc12 (some centres undefined) | 7.34 |
| OC(CNCCCCCCN1CC[C@H](c2ccc(F)cc2)[C@@H](COc2ccc3c(c2)OCO3)C1)COc1cccc2[nH]ccc12 (some centres undefined) | 8.17 |
| OC(CNCCC(Oc1ccc(C(F)(F)F)cc1)c1ccccc1)COc1ccccc1C1CCCC1 (centres undefined) | 7.44 |
| OC(CNCCCCCCNCCC(Oc1ccc(C(F)(F)F)cc1)c1ccccc1)COc1cccc2ccccc12 (centres undefined) | 6.41 |
| O[C@H](CNCC[C@H](Oc1ccc(C(F)(F)F)cc1)c1ccccc1)COc1cccc2ccccc12 | 6.85 |
| O[C@H](CNCC[C@H](Oc1ccc(C(F)(F)F)cc1)c1ccccc1)COc1cccc2[nH]ccc12 | 7.22 |
| O[C@H](COc1cccc2[nH]ccc12)CN1CC[C@@H](c2ccc(F)cc2)[C@H](COc2ccc3c(c2)OCO3)C1 | 8.23 |
| OC(CNCCCCCCN1CC[C@H](c2ccc(F)cc2)[C@@H](COc2ccc3c(c2)OCO3)C1)COc1cccc2ccccc12 (some centres undefined) | 6.81 |
| O[C@@H](CNCC[C@H](Oc1ccc(C(F)(F)F)cc1)c1ccccc1)COc1cccc2ccccc12 | 7.48 |
| O[C@@H](COc1cccc2[nH]ccc12)CN1CC[C@@H](c2ccc(F)cc2)[C@H](COc2ccc3c(c2)OCO3)C1 | 7.80 |
| O[C@@H](CNCC[C@H](Oc1ccc(C(F)(F)F)cc1)c1ccccc1)COc1cccc2[nH]ccc12 | 8.11 |
